Results on 23 compounds are retold here after patent US6362206B1, “Azole compounds, their production and use” (Takeda Chemical Industries, Ltd., priority 1995, dated 2002).

One series relates to Candida albicans TA. Kind of series: Protective effect against Candida albicans infection in mice (oral, ED50 from survival rate). The format is in vivo. To be noted: Crj: CDF1 mice inoculated i.v. with minimum lethal dose of Candida albicans TA, single oral dose immediately after infection as 30% HPCD solution, Reed and Muench method from survival rate 7 days after infection; for ED50: 168 h. As for the experimental part: Test Method: Five-week-old Crj: CDF1 mice were inoculated with the minimum lethal dose of Candida albicans TA intravenously. The test compounds were administered orally once immediately after infection as a 30% HPCD (hydroxypropyl-β-cyclodextrin) solution. The activity was expressed in terms of ED50 value calculated by the Reed and Muench method from the survival rate 7 days after infection.

Take “1-[(1R,2R)-2-(2,4-difluorophenyl)-2-hydroxy-1-methyl-3-(1H-1,2,4-triazol-17 yl)propyl]-3-[4-(1H-1,2,4-triazol-1-yl)phenyl]-2-imidazolidinone [Compound 10]”: the “ED50 (mg/kg) PO” value with Candida albicans TA is 0.32 mg/kg. In the case of “1-[(1R,2R)-2-(2,4-difluorophenyloy)-2-hydroxy-1-methyl-3-(1H-1,2,4-triazol-1-yl)propyl]-3-[4-(2H-1,2,3-triazol-2-yl)phenyl]-2-imidazolidinone [Compound 14]”, the “ED50 (mg/kg) PO” value in the series on Candida albicans TA is reported as 0.32 mg/kg.

Take “1-[(1R,2R)-2-(2-fluorophenyl)-2:-hydroxy-1-methyl-3-(1H-1,2,4-triazol-1-yl)propyl]-3-[4-(1H-1-tetrazolyl)phenyl]-2(1H,3H)-imidazolone [Compound 44]”: in the series with Candida albicans TA, the “ED50 (mg/kg) PO” value was determined as 0.39 mg/kg. On the same count and under the same terms, the figure for “1-[((1R,2R)-2-(2,4-difluorophenyl)-2-hydroxy-1-methyl-3-(1H-1,2,4-triazol-1-yl)propyl]-3-[4-(1H-1,2,4-triazol-1-yl)phenyl]-2(1H,3H)-imidazolone [Compound 9]” is 0.16 mg/kg. By ED50 is commonly meant the dose at which the effect has come halfway, by size or by number of responders. A lower ED50 goes with an effect at a small dose. As a reminder, the melting point is the temperature, or range, at which the solid turns liquid. As for `C[C@@H](n1ncn(-c2ccc(-n3cncn3)cc2)c1=O)[C@](O)(Cn1cncn1)c1ccc(F)cc1F` [Compound 5, 2-[(1R,2R)-2-(2,4-difluorophenyl)-2-hydroxy-1-methyl-3-(1H-1,2,4-triazol-1-yl)propyl]-4-[4-(1H-1,2,4-triazol-1-yl)phenyl]-3(2H,4H)-1,2,4-triazolone], the melting point was in the range of 182 to 184 °C. Besides, the 50% effect level with Candida albicans TA (ED50) was put at a dose of 0.22 mg/kg. The like results for `C[C@@H](n1ncn(-c2ccc(-n3ccnn3)cc2)c1=O)[C@](O)(Cn1cncn1)c1ccc(F)cc1F` [Compound 6, 2-[(1R,2R)-2-(2,4-difluorophenyl)-2-hydroxy-1-methyl-3-(1H-1,2,4-triazol-1-yl)propyl]-4-[4-(1H-1,2,3-triazol-1-yl)phenyl]-3(2H,4H)-1,2,4-triazolone] were, in that order, 219 to 220 °C and 0.35 mg/kg. For `C[C@@H](n1ncn(-c2ccc(-n3nccn3)cc2)c1=O)[C@](O)(Cn1cncn1)c1ccc(F)cc1F` [Compound 7, 2-[(1R,2R)-2-(2,4-difluorophenyl)-2-hydroxy-1-methyl-3-(1H-1,2,4-triazol-1-yl)propyl]-4-(4-(2H-1,2,3-triazol-2-yl)phenyl]-3(2H,4H)-1,2,4-triazolone], the melting point is 213 to 215 °C. In the series on Candida albicans TA, the 50% effective dose (ED50) was 0.096 mg/kg. `C[C@@H](n1ccn(-c2ccc(-n3ccnn3)cc2)c1=O)[C@](O)(Cn1cncn1)c1ccc(F)cc1F` [Compound 11, 1-[(1R,2R)-2-(2,4-difluorophenyl)-2-hydroxy-1-methyl-3-(1H-1,2,4-triazol-1-yl)propyl]-3-[4-(1H-1,2,3-triazol-1-yl)phenyl]-2(1H,3H)-imidazolone] displayed a melting point of 178 to 181 °C. This compound registered an ED50 in the series on Candida albicans TA of 0.45 mg/kg. Consider `C[C@@H](N1CCN(c2ccc(-n3ccnn3)cc2)C1=O)[C@](O)(Cn1cncn1)c1ccc(F)cc1F` [Compound 12, 1-[(1R,2R)-2-(2,4-difluorophenyl)-2-hydroxy-1-methyl-3-(1H-1,2,4-triazol-1-yl)propyl]-3-[4-(1H-1,2,3-triazol-1-yl)phenyl]-2-imidazolidinone], for which the 50% effect level in the series with Candida albicans TA (ED50) was put at a dose of 0.71 mg/kg. Compound `C[C@@H](n1ccn(-c2ccc(-n3nccn3)cc2)c1=O)[C@](O)(Cn1cncn1)c1ccc(F)cc1F` [Compound 13, 1-[(1R,2R)-2-(2,4-difluorophenyl)-2-hydroxy-1-methyl-3-(1H-1,2,4-triazol-1-yl)propyl]-3-[4-(2H-1,2,3-triazol-2-yl)phenyl]-2(1H,3H)-imidazolone] displayed a melting point of 182 to 185 °C. The ED50 in the series on Candida albicans TA came to 0.18 mg/kg. In the series with Candida albicans TA, `C[C@@H](n1ncn(-c2ccc(-n3cccn3)cc2)c1=O)[C@](O)(Cn1cncn1)c1ccc(F)cc1F` [Compound 19, 2-[(1R,2R)-2-(2,4-difluorophenyl)-2-hydroxy-1-methyl-3-(1H-1,2,4-triazol-1-yl)propyl]-4-[4-(1H-1-pyrazolyl)phenyl]-3(2H,4H)-1,2,4-triazolone] returned a median effective dose (ED50) of 0.39 mg/kg.

On to `C[C@@H](n1ncn(-c2ccc(-n3ncnn3)cc2)c1=O)[C@](O)(Cn1cncn1)c1ccc(F)cc1F` [Compound 25, 2-[(1R,2R)-2-(2,4-difluorophenyl)-2-hydroxy-1-methyl-3-(1H-1,2,4-triazol-1-yl)propyl]-4-[4-(2H-2-tetrazolyl)phenyl]-3(2H,4H)-1,2,4-triazolone], for which the ED50 in the series on Candida albicans TA stood at 0.088 mg/kg. Regarding `C[C@@H](n1ccn(-c2ccc(-n3ncnn3)cc2)c1=O)[C@](O)(Cn1cncn1)c1ccc(F)cc1F` [Compound 26, 1-[(1R,2R)-2-(2,4-difluorophenyl)-2-hydroxy-1-methyl-3-(1H-1,2,4-triazol-1-yl)propyl]-3-[4-(2H-2-tetrazolyl)phenyl]-2(1H,3H)-imidazolone], the 50% effect level in the series with Candida albicans TA (ED50) was put at a dose of 0.16 mg/kg.

`C[C@@H](N1CCN(c2ccc(-n3ncnn3)cc2)C1=O)[C@](O)(Cn1cncn1)c1ccc(F)cc1F` [Compound 27, 1-[(1R,2R)-2-(2,4-difluorophenyl)-2-hydroxy-1-methyl-3-(1H-1,2,4-triazol-1-yl)propyl]-3-[4-(2H-2-tetrazolyl)phenyl]-2-imidazolidinone] gave an ED50 in the series on Candida albicans TA of 0.18 mg/kg. `C[C@@H](N1CCN(c2ccc(-n3ccnn3)cc2)C1=O)[C@](O)(Cn1cncn1)c1ccccc1F` [Compound 34, [(1R,2R)-2-(2-fluorophenyl)-2-hydroxy-1-methyl-3-(1H-1,2,4-triazol-1-yl)propyl]-3-[4-(1H-1,2,3-triazol-1-yl)phenyl]-2-imidazolidinone] yielded an ED50 with Candida albicans TA of 0.8 mg/kg. Regarding `C[C@@H](N1CCN(c2ccc(-n3nccn3)cc2)C1=O)[C@](O)(Cn1cncn1)c1ccccc1F` [Compound 35, 1-[(1R,2R)-2-(2-fluorophenyl)-2-hydroxy-1-methyl-3-(1H-1,2,4-triazol-1-yl)propyl]-3-[4-(2H-1,2,3-triazol-2-yl)phenyl]-2-imidazolidinone], the melting point is 178 to 179 °C. In the series with Candida albicans TA, this compound registered an ED50 of 0.71 mg/kg. As for `C[C@@H](n1ccn(-c2ccc(-n3cncn3)cc2)c1=O)[C@](O)(Cn1cncn1)c1ccccc1F` [Compound 38, 1-[(1R,2R)-2-(2-fluorophenyl)-2-hydroxy-1-methyl-3-(1H-1,2,4-triazol-1-yl)propyl]-3-[4-[1H-1,2,4-triazol-1-yl)phenyl]-2(1H,3H)-imidazolone], the ED50 in the series on Candida albicans TA came to 0.5 mg/kg.

In the series on Candida albicans TA, `C[C@@H](N1CCN(c2ccc(-n3cncn3)cc2)C1=O)[C@](O)(Cn1cncn1)c1ccccc1F` [Compound 39, 1-[(1R,2R)-2-(2-fluorophenyl)-2-hydroxy-1-methyl-3-(1H-1,2,4-triazol-1-yl)propyl]-3-[4-(1H-1,2,4-triazol-1-yl)phenyl]-2-imidazolidinone] yielded an ED50 of 0.5 mg/kg. The same measure, in the same setting: the value for `C[C@@H](n1ccn(-c2ccc(-n3ncnn3)cc2)c1=O)[C@](O)(Cn1cncn1)c1ccccc1F` [Compound 40, 1-[(1R,2R)-2-(2-fluorophenyl)-2-hydroxy-1-methyl-3-(1H-1,2,4-triazol-1-yl)propyl]-3-[4-(2H-2-tetrazolyl)phenyl]-2(1H,3H)-imidazolone] was 0.35 mg/kg.

Consider `C[C@@H](N1CCN(c2ccc(-n3ncnn3)cc2)C1=O)[C@](O)(Cn1cncn1)c1ccccc1F` [Compound 41, 1-[(1R,2R)-2-(2-fluorophenyl)-2-hydroxy-1-methyl-3-(1H-1,2,4-triazol-1-yl)propyl]-3-[4-(2H-2-tetrazolyl)phenyl]-2-imidazolidinone], for which the ED50 in the series on Candida albicans TA was found to be 0.8 mg/kg.

For the compound `C[C@@H](n1ccn(-c2ccc(-n3cnnn3)cc2)c1=O)[C@](O)(Cn1cncn1)c1ccc(F)cc1F` [Compound 42, 1-[(1R,2R)-2-(2,4-difluorophenyl)-2-hydroxy-1-methyl-3-(1H-1,2,4-triazol-1-yl)propyl]-3-[4-(1H-1-tetrazolyl)phenyl]-2(1H,3H)-imidazolone], the 50% effect level in the series on Candida albicans TA (ED50) was put at a dose of 0.22 mg/kg. The same measure, in the same setting: the figure for `C[C@@H](N1CCN(c2ccc(-n3cnnn3)cc2)C1=O)[C@](O)(Cn1cncn1)c1ccc(F)cc1F` [Compound 43, 1-[(1R,2R)-2-(2,4— difluorophenyl)-2-hydroxy-1-methyl-3-(1H-1,2,4-triazol-1-yl)propyl]-3-[4-(1H-1-tetrazolyl)phenyl]-2-imidazolidinone] is 0.89 mg/kg. On the same count and under the same terms, the figure for `C[C@@H](N1CCN(c2ccc(-n3cnnn3)cc2)C1=O)[C@](O)(Cn1cncn1)c1ccccc1F` [Compound 45, 1-[(1R,2R)-2-(2-fluorophenyl)-2-hydroxy-1-methyl-3-(1H-1,2,4-triazol-1-yl)propyl]-3-[4-(1H-1-tetrazolyl)phenyl]-2-imidazolidinone] is 0.45 mg/kg.
